# Legend:
# CCR2 = CCR2 (Homo sapiens, UniProt P41597); assay: Compound 1 selectivity panel, buffer IC50; type: cell-based; conditions: Receptor CCR2
# Method: (§1) The selectivity of Compound 1 was tested by determining the IC50 value against a diverse panel of receptors, enzymes, and ion channels. […] See, Table 1.
# CCR5 = CCR5 (Homo sapiens, UniProt P51681); assay: Compound 1 selectivity panel, buffer IC50; type: cell-based; conditions: Receptor CCR5
# Method: as §1
# CCR6 = biological target: T1, CCR6 (Homo sapiens, UniProt P51684); assay: Compound 1 selectivity panel, buffer IC50; type: cell-based; conditions: Receptor CCR6
# T1 sequence (P51684 1-374): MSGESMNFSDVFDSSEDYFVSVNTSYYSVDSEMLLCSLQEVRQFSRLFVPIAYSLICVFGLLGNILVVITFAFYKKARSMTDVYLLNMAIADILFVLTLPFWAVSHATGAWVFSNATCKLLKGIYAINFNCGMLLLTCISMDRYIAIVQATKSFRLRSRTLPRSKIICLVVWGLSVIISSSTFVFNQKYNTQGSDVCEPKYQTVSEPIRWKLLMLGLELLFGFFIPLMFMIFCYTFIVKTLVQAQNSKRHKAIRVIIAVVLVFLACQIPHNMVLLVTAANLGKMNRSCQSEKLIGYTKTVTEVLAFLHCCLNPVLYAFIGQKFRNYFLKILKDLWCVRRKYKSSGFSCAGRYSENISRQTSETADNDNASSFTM
# Method: as §1
# CCR7 = biological target: T2, CCR7 (Homo sapiens, UniProt P32248); assay: Compound 1 selectivity panel, buffer IC50; type: cell-based; conditions: Receptor CCR7
# T2 sequence (P32248 25-378): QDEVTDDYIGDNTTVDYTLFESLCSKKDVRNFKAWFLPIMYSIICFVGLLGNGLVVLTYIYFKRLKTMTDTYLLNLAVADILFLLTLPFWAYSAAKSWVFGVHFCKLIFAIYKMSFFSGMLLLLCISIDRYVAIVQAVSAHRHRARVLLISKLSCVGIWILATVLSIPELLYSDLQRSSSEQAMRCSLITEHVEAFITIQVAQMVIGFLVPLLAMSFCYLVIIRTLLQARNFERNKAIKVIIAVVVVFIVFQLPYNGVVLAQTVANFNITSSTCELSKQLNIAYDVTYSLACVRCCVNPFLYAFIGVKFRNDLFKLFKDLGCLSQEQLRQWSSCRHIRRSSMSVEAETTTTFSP
# Method: as §1
# CCR8 = CCR8 (Homo sapiens, UniProt P51685); assay: Compound 1 selectivity panel, buffer IC50; type: cell-based; conditions: Receptor CCR8
# Sequence of CCR8 (P51685 whole entry, species assumed): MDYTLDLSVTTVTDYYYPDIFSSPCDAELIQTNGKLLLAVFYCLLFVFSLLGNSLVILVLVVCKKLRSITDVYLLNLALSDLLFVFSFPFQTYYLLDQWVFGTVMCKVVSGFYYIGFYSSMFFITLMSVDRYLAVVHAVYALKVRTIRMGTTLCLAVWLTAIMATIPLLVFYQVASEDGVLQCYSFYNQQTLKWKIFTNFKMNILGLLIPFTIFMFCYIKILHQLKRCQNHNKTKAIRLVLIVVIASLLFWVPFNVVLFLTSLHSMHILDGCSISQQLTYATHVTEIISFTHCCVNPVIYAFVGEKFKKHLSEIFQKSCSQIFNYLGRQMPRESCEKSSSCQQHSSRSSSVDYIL
# Method: as §1
# CCR9 = biological target: T3, CCR9 (Homo sapiens, UniProt P51686); assay: Compound 1 selectivity panel, buffer IC50; type: cell-based; conditions: Receptor CCR9
# T3 sequence (P51686 1-369): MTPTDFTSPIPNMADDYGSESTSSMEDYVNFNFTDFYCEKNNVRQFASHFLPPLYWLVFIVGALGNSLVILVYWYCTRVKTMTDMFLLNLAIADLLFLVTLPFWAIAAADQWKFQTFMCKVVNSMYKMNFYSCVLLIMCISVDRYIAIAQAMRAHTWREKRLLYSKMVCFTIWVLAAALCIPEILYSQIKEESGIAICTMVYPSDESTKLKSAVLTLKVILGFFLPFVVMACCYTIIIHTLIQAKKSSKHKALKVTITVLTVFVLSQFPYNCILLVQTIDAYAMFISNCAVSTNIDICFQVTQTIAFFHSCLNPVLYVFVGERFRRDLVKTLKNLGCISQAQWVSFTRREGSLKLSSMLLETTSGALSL
# Method: as §1
# CXCR4 = CXCR4 (Homo sapiens, UniProt P61073); assay: Compound 1 selectivity panel, buffer IC50; type: cell-based; conditions: Receptor CXCR4
# Sequence of CXCR4 (P61073 whole entry, species assumed): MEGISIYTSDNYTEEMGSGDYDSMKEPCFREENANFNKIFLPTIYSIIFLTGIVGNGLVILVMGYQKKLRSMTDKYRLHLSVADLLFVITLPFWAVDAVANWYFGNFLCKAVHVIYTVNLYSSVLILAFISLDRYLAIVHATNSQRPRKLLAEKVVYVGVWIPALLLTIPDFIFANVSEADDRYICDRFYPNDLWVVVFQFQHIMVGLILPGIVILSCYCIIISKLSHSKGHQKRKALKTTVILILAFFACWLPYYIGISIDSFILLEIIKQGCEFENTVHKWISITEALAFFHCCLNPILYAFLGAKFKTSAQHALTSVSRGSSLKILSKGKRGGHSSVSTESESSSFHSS
# Method: as §1
# mCCR4 = biological target: T4, mCCR4 (Mus musculus, UniProt P51680); assay: 125I-CCL17 binding, mouse CCR4 cells; conditions: Mouse mCCR4-293 cells, buffer
# T4 sequence (P51680 1-360): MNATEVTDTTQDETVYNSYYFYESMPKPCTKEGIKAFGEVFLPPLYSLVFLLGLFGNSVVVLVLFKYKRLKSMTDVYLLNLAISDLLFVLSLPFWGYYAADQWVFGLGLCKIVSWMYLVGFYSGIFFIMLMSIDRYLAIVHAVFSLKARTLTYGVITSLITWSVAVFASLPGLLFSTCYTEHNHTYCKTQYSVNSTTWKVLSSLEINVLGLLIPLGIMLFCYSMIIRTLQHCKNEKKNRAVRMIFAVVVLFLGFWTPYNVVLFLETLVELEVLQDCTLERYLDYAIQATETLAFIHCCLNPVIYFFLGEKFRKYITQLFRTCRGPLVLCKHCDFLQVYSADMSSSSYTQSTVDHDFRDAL
# KCM cells = assay: KCM orthotopic pancreatic tumor model; type: in vivo, mice
# Source text: The subcutaneous CT26 colon cancer model and the orthotopic KCM pancreatic cancer model were used to assess the effects of a CCR4 inhibitor, Compound 1, in combination with anti-CTLA-4 antibody (BioXcell: anti-mouse CTLA-4 (Clone: 9H10), raised in Syrian Hamster, purified with protein G). CT26 cells were implanted into the flanks of 9 week female Balb/c mice. Mice were randomized into study groups based on the tumor sizes on day 6, and dosing of both Compound 1 and anti-CTLA-4 started on day 7. For the orthotopic pancreatic cancer model, KCM cells were implanted directly into the pancreas, and dosing of Compound 1 and anti-CTLA-4 also began on day 7. Compound 1 was dosed orally twice daily at 30 mg/kg, and anti-CTLA-4 was dosed IP on days 7, 11 and 15 at 100 μg/mouse.
# As briefly described in Example 1, above, a KCM pancreatic cancer model was used to assess the effectiveness of a CCR4 inhibitor in combination with an anti-CTLA-4 antibody. The mice were broken into 4 groups (n=12 each group): isotype antibody+Vehicle; Isotype Antibody+Compound 1; anti-CTLA-4+Vehicle; anti-CTLA-4+Compound 1. The mice used were 7-8 week old C57BL/6 female mice. […]
# After completion of the study, the tumor/pancreases weight for each group was measured. […]
# Changes in suppressive immune cell populations were also measured at the completion of this study. […] Pancreas from sham-operated mice were processed and analyzed. […]
# Sequence of CCR2 (P41597 whole entry, species assumed): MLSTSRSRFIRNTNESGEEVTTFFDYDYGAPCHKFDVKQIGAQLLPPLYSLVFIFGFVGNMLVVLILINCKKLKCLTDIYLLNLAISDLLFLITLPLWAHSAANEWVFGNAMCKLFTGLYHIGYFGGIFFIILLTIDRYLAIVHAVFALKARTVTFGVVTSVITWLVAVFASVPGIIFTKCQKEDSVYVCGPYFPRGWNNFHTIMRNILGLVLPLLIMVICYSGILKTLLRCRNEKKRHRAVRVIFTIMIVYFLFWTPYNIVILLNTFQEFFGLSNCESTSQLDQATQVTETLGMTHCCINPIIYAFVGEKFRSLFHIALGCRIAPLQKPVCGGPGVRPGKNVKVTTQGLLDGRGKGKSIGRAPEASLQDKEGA
# Sequence of CCR5 (P51681 whole entry, species assumed): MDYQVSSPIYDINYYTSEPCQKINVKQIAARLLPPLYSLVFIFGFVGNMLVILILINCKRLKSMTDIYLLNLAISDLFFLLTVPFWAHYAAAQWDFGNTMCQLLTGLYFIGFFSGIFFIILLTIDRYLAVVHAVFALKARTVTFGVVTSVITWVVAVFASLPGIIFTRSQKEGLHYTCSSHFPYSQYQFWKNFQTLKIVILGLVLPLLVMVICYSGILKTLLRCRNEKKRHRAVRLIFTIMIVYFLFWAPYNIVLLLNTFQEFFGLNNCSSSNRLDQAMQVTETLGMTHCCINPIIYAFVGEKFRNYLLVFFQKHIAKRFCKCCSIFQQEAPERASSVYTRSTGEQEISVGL
compound,measurement,setting,value
C[C@@H](Nc1cc(C2CCN([C@H]3CCCN(CCC(=O)O)C3)CC2)ccc1Cl)c1ccc(Cl)cc1Cl [Compound 1],IC50,CCR2,> 10 µM
same,IC50,CCR5,> 10 µM
same,IC50,CCR6,> 10 µM
same,IC50,CCR7,> 10 µM
same,IC50,CCR8,> 10 µM
same,IC50,CCR9,> 10 µM
same,IC50,CXCR4,> 10 µM
same,IC50,mCCR4,0.027 µM
same,Spleen weight,KCM cells,reduced
same,Tumor burden (tumor + pancreas weight),"KCM cells; Compound 1 bid, anti-CTLA-4 100 μg i.p.",significantly reduced tumor burden

# From US12011439B2, “Combination therapy using C—C chemokine receptor 4 (CCR4) antagonists and one or more immune checkpoint inhibitors” (CHEMOCENTRYX, INC., priority 2018, dated 2024)
